Reference: patent US20100029654A1, “CARDIOVASCULAR COMPOSITIONS AND USE OF THE SAME FOR THE TREATMENT OF ALZHEIMER'S DISEASE” (MOUNT SINAI SCHOOL OF MEDICINE, priority 2006, published 2010)
Structures can show the parent of a compound that is named as a salt. Where two headings read alike, the source gives them in different places.

Tests used:
Aβ1-40 = Aβ1-40 content in conditioned medium of primary cortico-hippocampal neuron cultures from Tg2576 mice (ELISA; primary and secondary dose-response screening); type: cell-based, mouse; conditions: for activity at 100 µM / EC50: Mus musculus; for activity at 100 µM: 24 h, read-out: Ab1-40 (% of ctl)
How it was run: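 Primary cortico-hippocampal neurons from embryonic Tg2576 mice were plated at 1.0×10^5 cells per well on poly-D-lysine-coated 96-well plates in Neurobasal with 2% B27, 0.5 mM L-glutamine and 1% penicillin-streptomycin. Cultures received drug in 1% DMSO, and Aβ1-40 in the conditioned medium was measured by BioSource ELISA 24 hours after treatment, relative to vehicle controls.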

[1] = test system: primary cortico-hippocampal neuron cultures
Description: (§1) For in vitro treatments drugs available from “The Spectrum Collection” in stocks of 10 mM in DMSO were applied directly to cultures to the desired concentrations (final 1% DMSO); control primary neuron cultures from Tg2576 embryos were treated with vehicle resulting in a final 1% DMSO.
(§2) Cell viability was assessed using a commercial available LDH assay kit according to the manufacture's instruction (Promega).

[2] = test system: primary cortico-hippocampal neuron cultures; remark: listed apart in the source
Aβ1-42 [3] = experiment: Aβ1-42 content in conditioned medium of primary cortico-hippocampal neuron cultures from Tg2576 mice (ELISA; primary and secondary dose-response screening); type: cell-based, mouse; conditions: for activity at 100 µM / EC50: Mus musculus; for activity at 100 µM: primary screening, drug 100 μM, Tg2576 neuron cultures, table sorted by Aβ1-42, read-out: Ab1-42 (% of ctl); for EC50: Neuron
Aβ1-42 [4] = experiment: as above; type: cell-based, mouse; conditions: for Ab1-42 (% of ctl) / activity at 100 µM: drug 100 μM; for activity at 100 µM: Mus musculus, Neuron, 24 h, read-out: Ab1-42 (% of ctl); for reducing Aβ1-42: <85% of ctl
How it was run: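 This screen tested cardiovascular drugs for Aβ-lowering in Tg2576 embryonic cortico-hippocampal neuron cultures plated at 1.0×10^5 cells per well in poly-D-lysine-coated 96-well plates with Neurobasal/B27 medium. Drugs at 100 μM were added directly to the medium in duplicate, with 1% DMSO alone as the control. Conditioned medium was then collected, and its Aβ1-42 level was quantified with BioSource ELISA kits.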

[5] = test system: primary cortico-hippocampal neuron cultures; experiment: MTT in primary screening
Tg2576 mice [6] = experiment: blood pressure (systolic, diastolic, MAP) by tail-cuff; type: in vivo, mouse; conditions: Tg2576, 3 weeks
Description: FIG. 1 Tg2576 mice are characterized by normal blood pressure under basal conditions. Baseline measurements of systolic, diastolic blood pressure, and mean arteriole blood pressure (MAP) in ˜11 month old female Tg2576 mice. Strain-, age-, gender-matched WT mice were measured using a commercial blood pressure analysis system designed specifically for small rodents (Hatteras Instruments, NC). Following manufacturer's instruction, mice were temporarily immobilized in a restraining chamber and an inflated tail-cuff wrapped around the tail was used to measure the systolic pressure, diastolic pressure, and MAP. Each blood pressure determination was calculated as the mean of 10 individual measurements per animal (n=6-10 group).
FIG. 6A-C show body weight of mice in response to ˜3 weeks of treatment. […] FIG. 6D-F show the assessment of systolic, diastolic, and MAP blood pressure in Tg2576 mice in response to drug doses below or within the range of those prescribed in hypertension. Blood pressure measurements were conducted using a commercial blood pressure analysis system designed specifically for small rodents (Hatteras Instruments, NC). Following manufacturer's instruction, mice were temporarily immobilized in a restraining chamber and an inflated tail-cuff wrapped around the tail was used to measure pressures. Each blood pressure determination was calculated as the mean of 10 individual measurements per animal. In A-F, values represent mean±SEM values, n=3-5 mice per group. 2-tailed t-test: *P<0.05.
Assessment of blood pressure and glucose utilization. Mouse blood pressure was routinely recorded using a commercial blood pressure analysis system designed specifically for small rodents (Hatteras Instruments, NC). […] Briefly, mice were given a single dose of glucose post-prandially (i.p. 2 g/kg body weight). Blood was collected from the tail-vein periodically over a 2-hour period. Blood glycemic content was assessed using the OneTouch LifeScan System, (LifeScan, Milpitas, Calif.) following the manufacturer's instruction.

Tg2576 mice [7] = experiment: tolerability: body weight, fluid consumption, glucose tolerance; conditions: Tg2576, short-term dosing
[8] = test system: primary cortico-hippocampal neuron cultures; experiment: lactate dehydrogenase (LDH) activity assay in parallel neuron cultures; conditions: for LDH at E-5M % of change: drug at E-5M
Description: as §1, §2

[9] = primary screening, drug 100 μM, Tg2576 neuron cultures, table sorted by Aβ1-42
[10] = Primary Screening, drug 100 μM, table sorted by Aβ1-40
[11] = Primary Screening, table sorted by Aβ1-40
[12] = primary screening, table sorted by Aβ1-42
[13] = Neuron, Primary Screening, drug 100 μM, table sorted by Aβ1-40
[14] = Neuron, primary screening, drug 100 μM, Tg2576 neuron cultures, table sorted by Aβ1-42
[15] = primary screening, Tg2576 neuron cultures, table sorted by Aβ1-42
[16] = Neuron, secondary dose-response screening 0.01-100 μM, 24 hours, read-out: EC50 (molar) Aβ1-40
[17] = 24 h, secondary dose-response screening 0.01-100 μM, 24 hours, read-out: EC50 (molar) Aβ1-42

COc1cccc(OC)c1OCCNCC1COc2ccccc2O1.Cl (centres unmarked) [2-(2,6-Dimethoxyphenoxyethyl) Aminomethyl-1,4-Benzodioxane Hydrochloride]
Ab1-40 (% of ctl) (Aβ1-40): 82.6 % of ctl | reduced Aβ1-40 (Aβ1-40): reduced Aβ1-40 | LDH (% of ctl) [1]: 103.9 % of ctl | MTT (% of ctl) [2]: 95.5 % of ctl | Ab1-42 (% of ctl) (Aβ1-42 [3]): 94.7 % of ctl

CC[C@H]1[C@@H]2C[C@H]3[C@@H]4N(C)c5ccccc5[C@]45C[C@@H]([C@H]2[C@H]5O)N3[C@@H]1O [Ajmaline]
activity at 100 µM (Aβ1-40; [9]): 114% | Ab1-40 (% of ctl) (Aβ1-40; [10]): 114.0 % of ctl | Ab1-42 (% of ctl) (Aβ1-42 [4]; [11]): 103.3 % of ctl | LDH (% of ctl) ([1]; Tg2576, mouse): 97.6 % of ctl | activity at 100 µM (Aβ1-42 [3]; 24 h): 103% | MTT (% of ctl) [5, 11]: 90.3 % of ctl | MTT (% of ctl) [5, 12]: 90.3 % of ctl

N=C(N)NCCN1CCCCCCC1 [Guanethidine Sulfate]
LDH (% of ctl) ([1]; Tg2576, mouse): 1057.3 % of ctl

CCCCc1nc(Cl)c(CO)n1Cc1ccc(-c2ccccc2-c2nn[nH]n2)cc1 [Losartan]
activity at 100 µM (Aβ1-40; [13]): 76% | activity at 100 µM (Aβ1-40; [14]): 76% | EC50 (Aβ1-40; Neuron, Table IV, dose-response 0.01-100 μM, read-out: EC50 (M): Ab-lowering activity Abeta1-40): 0.000117 M | reduced Aβ1-40 (Aβ1-40; primary screening, <85% of ctl): reduced Aβ1-40 | activity at 100 µM (Aβ1-42 [4]; [11]): 97.1% | activity at 100 µM (Aβ1-42 [4]; [15]): 97.1% | systolic, diastolic, MAP blood pressure (Tg2576 mice [6]; doses within the range used for hypertension): decreased systolic, diastolic, and MAP blood pressure | systolic, diastolic, MAP blood pressure (Tg2576 mice [6]; doses ~3 fold below the minimal hypertension dose): did not significantly influence either systolic, diastolic or MAP blood pressure | EC50 (Aβ1-42 [3]; Table IV, dose-response 0.01-100 μM, read-out: EC50 (M): Ab-lowering activity): 0.0001 M | MTT (% of ctl) [5, 11]: 71.3 % of ctl | MTT (% of ctl) [5, 12]: 71.3 % of ctl | fluid intake (Tg2576 mice [7]): did not significantly influence the amount of fluid intake | LDH (% of ctl) [8, 11]: 110.4 % of ctl | LDH (at 5F-5 M) ([8]; Table IV): no change | LDH (% of ctl) [8, 12]: 110.4 % of ctl

COc1ccc(Cc2nccc3cc(OC)c(OC)cc23)cc1OC [Papaverine Hydrochloride]
activity at 100 µM (Aβ1-40; [9]): 15.3% | EC50 (Aβ1-40; [16]): 1.72e-05 M | Ab1-40 (% of ctl) (Aβ1-40; [10]): 15.3 % of ctl | reduced Aβ1-40 (Aβ1-40; primary screening, <85% of ctl): reduced Aβ1-40 | Ab1-42 (% of ctl) (Aβ1-42 [4]; [11]): 30.1 % of ctl | reducing Aβ1-42 (Aβ1-42 [4]; primary screening): useful in reducing Aβ1-42 | MTT (% of ctl) ([2]; Tg2576, mouse, 100 µM): 92.2 % of ctl | activity at 100 µM (Aβ1-42 [3]; 24 h): 30.1% | EC50 (Aβ1-42 [3]; secondary dose-response screening 0.01-100 μM, 24 hours, read-out: EC50 (molar) Aβ1-42): 1.91e-05 M | LDH (% of ctl) [8, 11]: 118.4 % of ctl | LDH at E-5M % of change [8]: −8.9% | LDH (% of ctl) [8, 12]: 118.4 % of ctl

CC(C)NCC(O)COc1cccc2ccccc12.Cl (stereo not drawn) [Propranolol Hydrochloride (−)]
Ab1-40 (% of ctl) (Aβ1-40; [10]): 55.0 % of ctl | reduced Aβ1-40 (Aβ1-40; primary screening, <85% of ctl): reduced Aβ1-40 | Ab1-40 (% of ctl) (Aβ1-40; [9]): 55.0 % of ctl | Ab1-42 (% of ctl) (Aβ1-42 [4]; [11]): 32.8 % of ctl | reducing Aβ1-42 (Aβ1-42 [4]; primary screening): useful in reducing Aβ1-42 | Ab1-42 (% of ctl) (Aβ1-42 [4]; [15]): 32.8 % of ctl | LDH (% of ctl) [1]: 166.6 % of ctl

C[C@]12CC[C@H]3[C@@H](CC[C@]4(O)C[C@@H](O)CC[C@]34C=O)[C@@]1(O)CC[C@@H]2C1=CC(=O)OC1 [Strophanthidin]
activity at 100 µM (Aβ1-40; [9]): 108% | Ab1-40 (% of ctl) (Aβ1-40; [10]): 107.5 % of ctl | Ab1-42 (% of ctl) (Aβ1-42 [4]; [11]): 88.6 % of ctl | activity at 100 µM (Aβ1-42 [3]; 24 h): 88.6% | MTT (% of ctl) [5, 11]: 99.2 % of ctl | MTT (% of ctl) [5, 12]: 99.2 % of ctl | LDH (% of ctl) [8, 11]: 119.4 % of ctl | LDH (% of ctl) [8, 12]: 119.4 % of ctl

CCCCCCCCNC(C)C(O)c1ccc(SC(C)C)cc1 (centres unmarked) [Suloctidil]
activity at 100 µM (Aβ1-40; [13]): 1.8% | activity at 100 µM (Aβ1-40; [14]): 1.8% | EC50 (Aβ1-40; [16]): 1.45e-05 M | reduced Aβ1-40 (Aβ1-40; primary screening, <85% of ctl): reduced Aβ1-40 | activity at 100 µM (Aβ1-42 [4]; [11]): 4.6% | activity at 100 µM (Aβ1-42 [4]; [15]): 4.6% | reducing Aβ1-42 (Aβ1-42 [4]; primary screening): useful in reducing Aβ1-42 | EC50 (Aβ1-42 [3]; [17]): 2.13e-05 M | MTT (% of ctl) [5, 11]: 77.7 % of ctl | MTT (% of ctl) [5, 12]: 77.7 % of ctl | LDH (% of ctl) [8, 11]: 396.1 % of ctl | LDH at E-5M % of change [8]: −3.4% | LDH (% of ctl) [8, 12]: 396.1 % of ctl

Cc1cc(C(C)(C)C)cc(C)c1CC1=NCCN1 [Xylometazoline Hydrochloride]
activity at 100 µM (Aβ1-40; [9]): 66.6% | Ab1-40 (% of ctl) (Aβ1-40; [10]): 66.6 % of ctl | reduced Aβ1-40 (Aβ1-40; primary screening, <85% of ctl): reduced Aβ1-40 | Ab1-42 (% of ctl) (Aβ1-42 [4]; [11]): 71.8 % of ctl | reducing Aβ1-42 (Aβ1-42 [4]; primary screening): useful in reducing Aβ1-42 | activity at 100 µM (Aβ1-42 [3]; 24 h): 71.8% | MTT (% of ctl) [5, 11]: 88.2 % of ctl | MTT (% of ctl) [5, 12]: 88.2 % of ctl | LDH (% of ctl) [8, 11]: 110.8 % of ctl | LDH (% of ctl) [8, 12]: 110.8 % of ctl

COC(=O)[C@@H]1[C@H]2C[C@H]3c4[nH]c5ccccc5c4CCN3C[C@@H]2CC[C@@H]1O [Yohimbine Hydrochloride]
activity at 100 µM (Aβ1-40; [13]): 66.2% | activity at 100 µM (Aβ1-40; [14]): 66.2% | reduced Aβ1-40 (Aβ1-40; primary screening, <85% of ctl): reduced Aβ1-40 | EC50 (molar) Aβ1-40 (Aβ1-40; secondary dose-response screening 0.01-100 μM, 24 hours): no fit | activity at 100 µM (Aβ1-42 [4]; [11]): 68.9% | activity at 100 µM (Aβ1-42 [4]; [15]): 68.9% | reducing Aβ1-42 (Aβ1-42 [4]; primary screening): useful in reducing Aβ1-42 | EC50 (Aβ1-42 [3]; [17]): 7.08e-12 M | MTT (% of ctl) [5, 11]: 82.7 % of ctl | MTT (% of ctl) [5, 12]: 82.7 % of ctl | LDH (% of ctl) [8, 11]: 107.8 % of ctl | LDH at E-5M % of change [8]: 6.0% | LDH (% of ctl) [8, 12]: 107.8 % of ctl

Veratrine Sulfate
Ab1-40 (% of ctl) (Aβ1-40; [10]): 58.5 % of ctl | reduced Aβ1-40 (Aβ1-40; primary screening, <85% of ctl): reduced Aβ1-40 | Ab1-40 (% of ctl) (Aβ1-40; [9]): 58.5 % of ctl | Ab1-42 (% of ctl) (Aβ1-42 [4]; [11]): 87.1 % of ctl | Ab1-42 (% of ctl) (Aβ1-42 [4]; [15]): 87.1 % of ctl | LDH (% of ctl) [1]: 124.4 % of ctl | MTT (% of ctl) [2]: 84.4 % of ctl
